Results taken from PubChem BioAssay AID1259407 (Chemical Carcinogenesis Research Information System (CCRIS), 2018).
Activity calls are given as the source filed them. How the calls were made is not given here.

Test system: CCRIS mutagenicity, Ames/micronucleus/aberration tests
Experiment: CCRIS mutagenicity studies
[1] = Test System: AMES SALMONELLA TYPHIMURIUM, Strain/Indicator: TA98, Metabolic Activation: NONE, Method: STANDARD PLATE
[2] = Test System: AMES SALMONELLA TYPHIMURIUM, Strain/Indicator: TA98, Metabolic Activation: RAT, LIVER, S-9, AROCLOR 1254, Method: STANDARD PLATE
[3] = Test System: AMES SALMONELLA TYPHIMURIUM, Strain/Indicator: TA100, Metabolic Activation: NONE, Method: STANDARD PLATE
[4] = Test System: AMES SALMONELLA TYPHIMURIUM, Strain/Indicator: TA100, Metabolic Activation: RAT, LIVER, S-9, AROCLOR 1254, Method: STANDARD PLATE
[5] = Test System: AMES SALMONELLA TYPHIMURIUM, Strain/Indicator: TA102, Metabolic Activation: NONE, Method: STANDARD PLATE

Measured: mutagenic call

N#Cc1c(Cl)cccc1Cl
inactive: Test System: AMES SALMONELLA TYPHIMURIUM, Strain/Indicator: TA97, Metabolic Activation: NONE, Method: STANDARD PLATE inactive; negative | Test System: AMES SALMONELLA TYPHIMURIUM, Strain/Indicator: TA97, Metabolic Activation: RAT, LIVER, S-9, AROCLOR 1254, Method: STANDARD PLATE inactive; negative | [1] inactive; negative | [2] inactive; negative | [3] inactive; negative | [4] inactive; negative | [5] inactive; negative | Test System: AMES SALMONELLA TYPHIMURIUM, Strain/Indicator: TA102, Metabolic Activation: RAT, LIVER, S-9, AROCLOR 1254, Method: STANDARD PLATE inactive; negative

CC[C@@]1(O)C(=O)OCc2c1cc1n(c2=O)Cc2cc3c(CN(C)C)c(O)ccc3nc2-1
active: Test System: CHINESE HAMSTER V-79, Strain/Indicator: V-79 (HPRT)/6-THIOGUANINE, Metabolic Activation: NONE active; positive

OC[C@H]1O[C@@](CO)(O[C@H]2O[C@H](CO)[C@@H](O)[C@H](O)[C@H]2O)[C@@H](O)[C@@H]1O
active: End Point: IN VITRO CHROMOSOMAL ABERRATIONS, Test System: CHO-WBL CELLS, Metabolic Activation: NONE active; positive (structural changes); osmolality of solution decisive factor
inactive: Test System: MOUSE LYMPHOMA, Strain/Indicator: L5178Y (TK+/TK-), Metabolic Activation: NONE, Method: SUSPENSION/PLATE inactive; negative | Test System: MOUSE LYMPHOMA, Strain/Indicator: L5178Y (TK+/TK-), Metabolic Activation: RAT, LIVER, S-9, AROCLOR 1254, Method: SUSPENSION/PLATE inactive; negative | Test System: MOUSE LYMPHOMA, Strain/Indicator: L5178Y (TK+/TK-), Metabolic Activation: RAT, LIVER, S-9, Method: SUSPENSION/PLATE inactive; negative

Cc1cc(N(CCO)CCO)ccc1N=Nc1ccc(N)cc1
inactive: Test System: AMES SALMONELLA TYPHIMURIUM, Strain/Indicator: TA98, Metabolic Activation: HAMSTER, LIVER, S-9, AROCLOR 1254, Method: STANDARD PLATE inactive; negative | [1] inactive; negative | Test System: AMES SALMONELLA TYPHIMURIUM, Strain/Indicator: TA98, Metabolic Activation: RAT, LIVER, S-9, AROCLOR 1254, Method: PREINCUBATION inactive; negative | [2] inactive; negative | [3] inactive; negative | [4] inactive; negative | Test System: AMES SALMONELLA TYPHIMURIUM, Strain/Indicator: TA1535, Metabolic Activation: NONE, Method: STANDARD PLATE inactive; negative | Test System: AMES SALMONELLA TYPHIMURIUM, Strain/Indicator: TA1535, Metabolic Activation: RAT, LIVER, S-9, AROCLOR 1254, Method: STANDARD PLATE inactive; negative | Test System: AMES SALMONELLA TYPHIMURIUM, Strain/Indicator: TA1537, Metabolic Activation: NONE, Method: STANDARD PLATE inactive; negative | Test System: AMES SALMONELLA TYPHIMURIUM, Strain/Indicator: TA1537, Metabolic Activation: RAT, LIVER, S-9, AROCLOR 1254, Method: STANDARD PLATE inactive; negative | Test System: AMES SALMONELLA TYPHIMURIUM, Strain/Indicator: TA1538, Metabolic Activation: NONE, Method: STANDARD PLATE inactive; negative | Test System: AMES SALMONELLA TYPHIMURIUM, Strain/Indicator: TA1538, Metabolic Activation: RAT, LIVER, S-9, AROCLOR 1254, Method: STANDARD PLATE inactive; negative

CC(=O)CC(=O)Nc1ccc(C)cc1
inactive: Test System: AMES SALMONELLA TYPHIMURIUM, Strain/Indicator: TA98, Metabolic Activation: NONE, Method: PREINCUBATION inactive; negative | Test System: AMES SALMONELLA TYPHIMURIUM, Strain/Indicator: TA98, Metabolic Activation: RAT, LIVER, S-9, PHENOBARBITAL AND BETA-NAPHTHOFLAVONE, Method: PREINCUBATION inactive; negative | Test System: AMES SALMONELLA TYPHIMURIUM, Strain/Indicator: TA100, Metabolic Activation: NONE, Method: PREINCUBATION inactive; negative | Test System: AMES SALMONELLA TYPHIMURIUM, Strain/Indicator: TA100, Metabolic Activation: RAT, LIVER, S-9, PHENOBARBITAL AND BETA-NAPHTHOFLAVONE, Method: PREINCUBATION inactive; negative | Test System: AMES SALMONELLA TYPHIMURIUM, Strain/Indicator: TA102, Metabolic Activation: NONE, Method: PREINCUBATION inactive; negative | [5] inactive; negative | Test System: AMES SALMONELLA TYPHIMURIUM, Strain/Indicator: TA102, Metabolic Activation: RAT, LIVER, S-9, PHENOBARBITAL AND BETA-NAPHTHOFLAVONE, Method: PREINCUBATION inactive; negative | Test System: AMES SALMONELLA TYPHIMURIUM, Strain/Indicator: TA104, Metabolic Activation: NONE, Method: PREINCUBATION inactive; negative | Test System: AMES SALMONELLA TYPHIMURIUM, Strain/Indicator: TA104, Metabolic Activation: RAT, LIVER, S-9, PHENOBARBITAL AND BETA-NAPHTHOFLAVONE, Method: PREINCUBATION inactive; negative | Test System: AMES SALMONELLA TYPHIMURIUM, Strain/Indicator: TA1535, Metabolic Activation: NONE, Method: PREINCUBATION inactive; negative | Test System: AMES SALMONELLA TYPHIMURIUM, Strain/Indicator: TA1535, Metabolic Activation: RAT, LIVER, S-9, PHENOBARBITAL AND BETA-NAPHTHOFLAVONE, Method: PREINCUBATION inactive; negative | Test System: AMES SALMONELLA TYPHIMURIUM, Strain/Indicator: TA1537, Metabolic Activation: NONE, Method: PREINCUBATION inactive; negative | Test System: AMES SALMONELLA TYPHIMURIUM, Strain/Indicator: TA1537, Metabolic Activation: RAT, LIVER, S-9, PHENOBARBITAL AND BETA-NAPHTHOFLAVONE, Method: PREINCUBATION inactive; negative | Test System: AMES SALMONELLA TYPHIMURIUM, Strain/Indicator: TA2638, Metabolic Activation: NONE, Method: STANDARD PLATE inactive; negative | Test System: E. COLI, Strain/Indicator: WP2 (PKM101), Metabolic Activation: NONE, Method: STANDARD PLATE inactive; negative | Test System: E. COLI, Strain/Indicator: WP2 UVRA (PKM101), Metabolic Activation: NONE, Method: STANDARD PLATE inactive; negative | Test System: E. COLI, Strain/Indicator: WP2UVRA, Metabolic Activation: NONE, Method: PREINCUBATION inactive; negative | Test System: E. COLI, Strain/Indicator: WP2UVRA, Metabolic Activation: RAT, LIVER, S-9, PHENOBARBITAL AND BETA-NAPHTHOFLAVONE, Method: PREINCUBATION inactive; negative
active: Test System: E. COLI, Strain/Indicator: WP2UVRA/PKM101, Metabolic Activation: NONE, Method: PREINCUBATION active; positive
